# Values of other authors in US6376550B1, “Pharmaceutical compositions containing tramadol for migraine” (ASTA Medica AG, priority 1999, dated 2002).
# Settings: in vivo
structure (smiles),measurement,value
"COc1cccc(C2(O)CCCCC2CN(C)C)c1 (stereo not shown) [tramadol, 2-[(dimethylamino)methyl]-1-(3-methoxyphenyl)cyclohexanol]",terminal elimination half life,5 to 6 h
